Laboratory results as given in patent publication US7582627B2, “3-aminoquinazolin-2,4-dione antibacterial agents” (Warner-Lambert Company, priority 2000, dated 2009).
pIC50: −log10 of the molar value. In brackets after ≈: the same amount, converted by molar mass. Where a name gives a salt, the structure may show the parent alone. Read-outs that look alike come from different tables or passages of the source.

Experiments:
E. coli B90 = test: Antibacterial assay, microtitration MIC; assay type: cell-based; details: Escherichia coli
Description: (§1) The compounds of the present invention are tested against an assortment of Gram negative and Gram positive organisms using standard microtitration techniques (Cohen et al., Antimicrob. Agents Chemother., 1985; 28:766; Heifetz et al., Antimicrob. Agents Chemother., 1974; 6:124). The results of the evaluation of representative 3-aminoquinazolin-2,4-diones of Formula I are shown in Table 2 and compared to two 3-hydroxyquinazolin-2,4-diones.

E. coli MC4100 = test: Antibacterial assay, microtitration MIC; assay type: cell-based; details: Escherichia coli
Description: as §1

E. coli Tol C = test: Antibacterial assay, microtitration MIC; assay type: cell-based; details: Escherichia coli, read-out: Minimum Inhibitory Concentrations E. coli Tol C
Description: as §1

E. faecalis RB1 = test: Antibacterial assay, microtitration MIC; assay type: cell-based; details: Enterococcus faecalis
Description: as §1

S. aureus 29213 = test: Antibacterial assay, microtitration MIC; assay type: cell-based
Description: as §1

S. pyogenes C203 = test: Antibacterial assay, microtitration MIC; assay type: cell-based; details: Streptococcus pyogenes
Description: as §1

E. coli gyrase = target: T1, E. coli gyrase (Escherichia coli, UniProt P0AES4+P0AES6); test: DNA gyrase supercoiling inhibition assay; assay type: biochemical
T1 construct: purchased Lucent, Ltd., Leicester, UK
Description: The effects of invention compounds on the activity of DNA gyrase is determined in the supercoiling inhibition assay, following reaction conditions recommended by the enzyme supplier (Lucent, Ltd., Leicester, UK). Reactions are performed in buffer G (35 mM Tris-HCl (pH 7.5), 24 mM KCl, 4 mM MgCl2, 2 mM DTT, 1.8 mM spermidine, 1 mM ATP, 0.1 mg/mL bovine serum albumin). Relaxed plasmid pBR322 (0.25 μg, Lucent, Ltd., Leicester, UK) is reacted with 1 U E. coli gyrase (Lucent, Ltd., Leicester, UK), in the absence or presence of test compounds, for 30 minutes at 37° C. Reactions are stopped by the addition of SDS and proteinase K to respective final concentrations of 1% and 0.5 mg/mL. After an additional 30 minutes at 37° C., one-tenth volume of 10× loading buffer (0.3% bromophenol blue, 16% Ficoll, 10 mM Na2HPO4) is added, and reactions are loaded onto agarose gels and electrophoresed. The concentration of representative invention compounds of Formula I inhibiting 50% of the supercoiling activity of DNA gyrase is given as an IC50 and recorded in Table 2.

S. pyogenes = test: In vivo median protective dose, lethal systemic infection; details: mice
Description: (§2) The in vivo activity of invention compounds is evaluated according to the procedure of Miller et al., Proc. Soc. Exp. Biol. Med, 1944; 57:261. The median protective dose (PD50) is determined in mice given lethal systemic infections. Two 3-aminoquinazolin-2,4-diones of the invention are compared to a […], and the results are presented in Table 3. The results establish the unexpected superiority of the 3-amino invention compounds compared to similar 3-hydroxy analogs.

E. coli JL4 = test: Cross resistance antibacterial assay, microtitration MIC; assay type: cell-based; details: Escherichia coli, Tol C pump deficient strain with E. coli W3110 background, read-out: Minimum Inhibitory Concentrations E. coli JL4
Description: (§3) The compounds of the present invention are tested against an assortment of ciprofloxacin resistant E. coli and S. aureus organisms described below using standard microtitration techniques (Cohen, et al., Antimicrob. Agents Chemother., 1985; 28:766; Heifetz, et al., Antimicrob. Agents Chemother., 1974; 6:124).

E. coli LLM1 = test: as above; assay type: cell-based; details: Escherichia coli, LLM1, read-out: Minimum Inhibitory Concentrations E. coli LLM1
Description: as §3

S. aureus 2552 = test: as above; assay type: cell-based; details: Staphylococcus aureus, read-out: Minimum Inhibitory Concentrations S. aureus 2552
Description: as §3

S. aureus 2554 = test: as above; assay type: cell-based; details: Staphylococcus aureus, 2554, read-out: Minimum Inhibitory Concentrations S. aureus 2554
Description: as §3

S. aureus 2558 = test: as above; assay type: cell-based; details: Staphylococcus aureus, 2558, read-out: Minimum Inhibitory Concentrations S. aureus 2558
Description: as §3

S. aureus UC-76 = test: as above; assay type: cell-based; details: Staphylococcus aureus, UC76; typical sensitive laboratory strain (wild type); read-out: Minimum Inhibitory Concentrations S. aureus UC-76
Description: as §3

E. coli = test: In vivo median protective dose, lethal systemic infection; details: mice
Description: as §2

T1 sequence (P0AES4 whole entry, one chain of several): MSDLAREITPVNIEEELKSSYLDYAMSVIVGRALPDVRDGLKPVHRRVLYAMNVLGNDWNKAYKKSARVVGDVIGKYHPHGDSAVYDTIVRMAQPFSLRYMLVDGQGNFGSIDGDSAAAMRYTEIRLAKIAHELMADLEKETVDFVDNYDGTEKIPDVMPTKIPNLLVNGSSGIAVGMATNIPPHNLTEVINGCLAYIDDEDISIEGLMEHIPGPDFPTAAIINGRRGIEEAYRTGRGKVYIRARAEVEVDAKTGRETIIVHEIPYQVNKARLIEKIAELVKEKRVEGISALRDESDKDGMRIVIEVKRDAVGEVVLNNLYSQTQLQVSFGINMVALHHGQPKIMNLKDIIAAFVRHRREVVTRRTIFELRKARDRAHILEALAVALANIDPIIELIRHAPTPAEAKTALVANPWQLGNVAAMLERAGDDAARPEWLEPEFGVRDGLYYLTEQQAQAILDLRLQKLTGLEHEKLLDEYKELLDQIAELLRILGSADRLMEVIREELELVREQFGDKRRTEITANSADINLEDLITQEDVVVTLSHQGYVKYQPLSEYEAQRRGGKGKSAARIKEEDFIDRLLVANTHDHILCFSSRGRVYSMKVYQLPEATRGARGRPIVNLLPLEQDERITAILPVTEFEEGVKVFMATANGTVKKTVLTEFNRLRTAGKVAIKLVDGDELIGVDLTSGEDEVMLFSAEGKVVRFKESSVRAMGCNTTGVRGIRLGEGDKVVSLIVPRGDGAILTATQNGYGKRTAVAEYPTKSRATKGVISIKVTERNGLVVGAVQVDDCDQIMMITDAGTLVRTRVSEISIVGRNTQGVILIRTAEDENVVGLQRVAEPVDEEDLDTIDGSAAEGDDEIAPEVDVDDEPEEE

Structure (SMILES)	MIC (E. coli JL4) [µg/mL]	MIC (E. coli LLM1) [µg/mL]	MIC (S. aureus 2552) [µg/mL]	MIC (S. aureus 2554) [µg/mL]	MIC (S. aureus 2558) [µg/mL]	MIC (S. aureus UC-76) [µg/mL]	further results
NCC1CCN(c2c(F)cc3c(=O)n(N)c(=O)n(C4CC4)c3c2Cl)C1 (stereo not drawn) [Compound 1, 3-Amino-7-(3-aminomethylpyrrolidin-1-yl)-8-chloro-1-cyclopropyl-6-fluoro-1H-quinazoline-2,4-dione hydrochloride]	0.13	0.5	1	1	1	0.13	MIC (E. coli B90; B90, read-out: Minimum Inhibitory Concentrations E. coli B90): 1 µg/mL; MIC (E. coli MC4100; MC4100, read-out: Minimum Inhibitory Concentrations E. coli MC4100): 2 µg/mL; MIC (E. coli Tol C): 0.25 µg/mL; MIC (E. faecalis RB1; RB1, read-out: Minimum Inhibitory Concentrations E. faecalis RB1): 1 µg/mL; MIC (S. aureus 29213; Staphylococcus aureus, 29213, read-out: Minimum Inhibitory Concentrations S. aureus 29213): 0.5 µg/mL; MIC (S. pyogenes C203; C203, read-out: Minimum Inhibitory Concentrations S. pyogenes C203): 0.13 µg/mL; pIC50 (E. coli gyrase; supercoiling of relaxed pBR322, 30 minutes at 37° C., read-out: E. coli gyrase IC50): 6.00; PD50 (S. pyogenes): 12 mg/kg
CC1(CN)CCN(c2c(F)cc3c(=O)n(N)c(=O)n(C4CC4)c3c2Cl)C1 (stereo not drawn) [Compound 3, 3-Amino-7-[3-(aminomethyl)-3-methylpyrrolidin-1-yl]-8-chloro-1-cyclopropyl-6-fluoro-1H-quinazoline-2,4-dione hydrochloride]	0.5	1	2	2	4	1	
Cl.NC1CCN(c2c(F)cc3c(=O)n(N)c(=O)n(C4CC4)c3c2Cl)C1 (stereo not drawn) [Compound 10, 3-Amino-7-(3-aminopyrrolidin-1-yl)-8-chloro-1-cyclopropyl-6-fluoro-1H-quinazoline-2,4-dione hydrochloride]							PD50 (E. coli): 72 mg/kg
Cl.Nn1c(=O)c2cc(F)c(N3CCC(CO)C3)c(Cl)c2n(C2CC2)c1=O (stereo not drawn) [Compound 12, 3-Amino-7-(3-hydroxymethylpyrrolidin-1-yl)-8-chloro-1-cyclopropyl-6-fluoro-1H-quinazoline-2,4-dione hydrochloride]	0.06	0.25	1	1	2	1	MIC (E. coli B90; B90, Gram negative, read-out: Minimum Inhibitory Concentrations E. coli B90): 0.25 µg/mL; MIC (E. coli MC4100; MC4100, Gram negative, read-out: Minimum Inhibitory Concentrations E. coli MC4100): 16 µg/mL; MIC (E. coli Tol C): 0.13 µg/mL; MIC (E. faecalis RB1; RB1, Gram positive, read-out: Minimum Inhibitory Concentrations E. faecalis RB1): 4 µg/mL; MIC (S. aureus 29213; Staphylococcus aureus, 29213, Gram positive, read-out: Minimum Inhibitory Concentrations S. aureus 29213): 2 µg/mL; MIC (S. pyogenes C203; C203, Gram positive, read-out: Minimum Inhibitory Concentrations S. pyogenes C203): 8 µg/mL; pIC50 (E. coli gyrase): 5.68; melting point: 78 to 80 °C
N[C@@H]1[C@H]2CN(c3cc4c(cc3F)c(=O)n(O)c(=O)n4C3CC3)C[C@@H]12 [drawing 286, reference compound]							PD50 (S. pyogenes): >100 mg/kg
N[C@@H]1[C@H]2CN(c3cc4c(cc3F)c(=O)n(O)c(=O)n4C3CC3)C[C@@H]12 [drawing 287, reference compound]	0.25 (≈ 0.752 µM)	4 (≈ 12 µM)	32 (≈ 96.3 µM)	32 (≈ 96.3 µM)	> 64	4 (≈ 12 µM)	
N[C@H]1CCN(c2cc3c(cc2F)c(=O)n(O)c(=O)n3C2CC2)C1 [reference compound]	0.5 (≈ 1.56 µM)	2 (≈ 6.24 µM)	> 64	> 64	> 64	4 (≈ 12.5 µM)	
